Results as given in patent US9844533B2, “Antioxidant-containing food composition for use in inhibiting histamine pathways in companion animals” (Hill's Pet Nutrition, Inc., priority 2008, dated 2017).

Legend:
Format in all cases: cell-based
[1] = test system: GAB2 (GRB2-associated-binding protein 2); assay: Gene expression in four cat cell lines treated with or without lipoic acid (paired t test, GeneGo enrichment); conditions: Table 4; four cat cell lines with vs without lipoic acid; p<0.05
Description: (§1) The gene expression data from four cat cell lines treated with lipoic acid was analyzed.

[2] = test system: ADCY2 (Adenylate cyclase type 2); assay: Gene expression in four cat cell lines treated with or without lipoic acid; conditions: Table 5; four cat cell lines with vs without lipoic acid; p<0.05
Description: as §1

[3] = test system: ADCY7 (Adenylate cyclase type 7); assay: as above; conditions: Table 5; four cat cell lines with vs without lipoic acid; p<0.05
Description: as §1

[4] = test system: LTC4S (Leukotriene C4 synthase); assay: as above; conditions: Table 4; four cat cell lines with vs without lipoic acid; p<0.05
Description: as §1

[5] = test system: MAP2K1 (Dual specificity mitogen-activated protein kinase 1); assay: as above; conditions: Table 4; four cat cell lines with vs without lipoic acid; p<0.05
Description: as §1

[6] = test system: MAPK1 (Mitogen-activated protein kinase 1); assay: as above; conditions: four cat cell lines with vs without lipoic acid, p<0.05
Description: as §1

[7] = test system: NOS3 (Nitric oxide synthase, endothelial); assay: as above; conditions: Table 5; four cat cell lines with vs without lipoic acid; p<0.05
Description: as §1

[8] = test system: PLA2G2F (Group IIFA2 secretory phospholipase precursor); assay: as above; conditions: Table 5; four cat cell lines with vs without lipoic acid; p<0.05
Description: as §1

[9] = test system: PNPLA8 (Calcium-independent phospholipase A2-gamma); assay: as above; conditions: Table 5; four cat cell lines with vs without lipoic acid; p<0.05
Description: as §1

[10] = test system: PRKAR1A (cAMP-dependent protein kinase type I-alpha regulatory subunit); assay: as above; conditions: Table 5; four cat cell lines with vs without lipoic acid; p<0.05
Description: as §1

[11] = test system: REL (C-Rel proto-oncogene protein); assay: as above; conditions: Table 5; four cat cell lines with vs without lipoic acid; p<0.05
Description: as §1

[12] = test system: RELA (Transcription factor p65); assay: as above; conditions: Table 5; four cat cell lines with vs without lipoic acid; p<0.05
Description: as §1

[13] = test system: TNF (Tumor necrosis factor precursor); assay: as above; conditions: Table 5; four cat cell lines with vs without lipoic acid; p<0.05
Description: as §1

[14] = test system: VCAM1 (Vascular cell adhesion protein 1 precursor); assay: as above; conditions: Table 5; four cat cell lines with vs without lipoic acid; p<0.05
Description: as §1

[15] = test system: histamine release and signaling pathways (gene networks); assay: Gene network enrichment analysis of cat cell lines treated with lipoic acid; conditions: four cat cell lines treated with lipoic acid
Description: as §1

## O=C(O)CCCCC1CCSS1 (stereo not drawn) [lipoic acid, alpha-lipoic acid]
[1]
  Signal (GAB2 gene expression change): −0.8668
[2]
  Signal (ADCY2 gene expression change): 0.3925
[3]
  Signal (ADCY7 gene expression change): 0.3988
[4]
  Signal (LTC4S gene expression change): −0.4586
[5]
  Signal (MAP2K1 gene expression change): −0.1574
[6]; Table 4
  Signal (MAPK1 gene expression change): −0.3117
[6]; Table 5
  Signal (MAPK1 gene expression change): −0.3117
[7]
  Signal (NOS3 gene expression change): −0.5503
[8]
  Signal (PLA2G2F gene expression change): 1.061
[9]
  Signal (PNPLA8 gene expression change): −0.2652
[10]
  Signal (PRKAR1A gene expression change): −0.184
[11]
  Signal (REL gene expression change): −0.4264
[12]
  Signal (RELA gene expression change): −0.429
[13]
  Signal (TNF gene expression change): 0.1797
[14]
  Signal (VCAM1 gene expression change): −0.7819|
[15]
  Regulation of key genes in histamine and IgE signaling networks: down regulated
